From patent US20210094922A1, “Dyes for Analysis of Soluble Protein Aggregates or Misfolded Protein Oligomers” (The Penn State Research Foundation, priority 2018, published 2021)

Columns and labels:
[1] = system: Htt-110Q-Halo; experiment: Two-color imaging of Htt-110Q-Halo in HEK293T cells; type: cell-based, human; conditions: control
Text: (§1) (B-C) Excitation and emission spectra of 4 (with misfolded oligomers of SOD1-A4V-Halo) and 5 (with insoluble aggregates of SOD1-A4V-Halo).
(§2) Combination of 4 and 5 enables a two-color imaging strategy to differentiate insoluble aggregates from soluble oligomers. The inventors carried out live cell imaging experiments, wherein 4 or 5 was used to visualize aggregation of POI-Halo fusion proteins in HEK293T cells. […] To this end, the inventors labeled HEK293T cells expressing SOD1-A4V-Halo simultaneously with 4 and 5 (both at 0.5 μM) for 24 h and treated cells with 5 μM MG132 for 8 h. […] The inventors further carried out experiments using Htt-PolyQ with 110 glutamine repeats (Htt-110Q-Halo).

[2] = biological target: T1, Htt-110Q-Halo (Homo sapiens, UniProt P42858); experiment: as above; type: cell-based
T1 construct: using the Huntingtin exon 1 protein (Htt) with expansion of a polyglutamine tract within its N-terminal domain; expressed in transfected cells; host or cells: HEK293T
Text: as §1, §2

[3] = biological target: T2, SOD1-A4V-Halo (Homo sapiens, UniProt P00441, A5V); experiment: In vitro heat-induced aggregation of SOD1-A4V-Halo conjugates; type: biochemical
Text: as §1
Target sequence in this assay (P00441 with tags, fused parts or gaps A5V): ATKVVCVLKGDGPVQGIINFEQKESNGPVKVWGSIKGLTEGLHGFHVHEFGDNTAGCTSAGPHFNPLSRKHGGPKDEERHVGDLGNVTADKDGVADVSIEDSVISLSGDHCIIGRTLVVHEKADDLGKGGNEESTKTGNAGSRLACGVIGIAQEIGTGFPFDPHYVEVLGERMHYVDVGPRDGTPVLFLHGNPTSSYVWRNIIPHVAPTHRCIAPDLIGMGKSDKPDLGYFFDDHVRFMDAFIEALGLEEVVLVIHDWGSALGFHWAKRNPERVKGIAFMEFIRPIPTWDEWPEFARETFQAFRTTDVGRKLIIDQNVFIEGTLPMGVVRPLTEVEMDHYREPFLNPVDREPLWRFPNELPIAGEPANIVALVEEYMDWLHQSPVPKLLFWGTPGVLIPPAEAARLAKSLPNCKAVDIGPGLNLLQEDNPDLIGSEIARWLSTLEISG
The inventors installed Halo-tag reactive warhead to 2, resulting in 5.

[4] = biological target: T2, SOD1-A4V-Halo; experiment: Two-color imaging of SOD1-A4V-Halo in HEK293T cells under MG132; type: cell-based; design: expressed in transfected cells; host or cells: HEK293T; conditions: 4 and 5 both at 0.5 μM, 5 μM MG132 for 8 h
Text: as §1, §2
Target sequence in this assay (P00441 with tags, fused parts or gaps A5V limits assumed): as the sequence (P00441 with tags, fused parts or gaps A5V) above

[5] = 4 with misfolded oligomers, 5 with insoluble aggregates of SOD1-A4V-Halo

T1 sequence (P42858 with tags, fused parts or gaps): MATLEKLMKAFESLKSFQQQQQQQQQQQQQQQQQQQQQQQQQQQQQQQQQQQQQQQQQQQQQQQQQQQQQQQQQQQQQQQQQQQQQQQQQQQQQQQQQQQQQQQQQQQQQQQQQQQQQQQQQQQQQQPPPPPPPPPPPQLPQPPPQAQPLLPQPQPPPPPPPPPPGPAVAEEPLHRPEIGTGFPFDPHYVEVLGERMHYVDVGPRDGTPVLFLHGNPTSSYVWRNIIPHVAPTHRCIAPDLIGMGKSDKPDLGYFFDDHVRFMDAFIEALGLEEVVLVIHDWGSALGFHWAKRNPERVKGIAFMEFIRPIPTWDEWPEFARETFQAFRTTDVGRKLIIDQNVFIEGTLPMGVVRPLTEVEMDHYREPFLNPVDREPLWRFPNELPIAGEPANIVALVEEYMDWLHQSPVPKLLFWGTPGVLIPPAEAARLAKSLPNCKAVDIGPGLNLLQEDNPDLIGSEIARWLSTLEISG

- fluorescence of Htt-110Q-Halo inclusions [2]: exhibit fluorescence from both 4 and 5
- molar extinction coefficient [3]: 23,716 M^−1·cm^−1
- Em [3, 5]: 520 nm
- Ex [3, 5]: 450 nm
- fluorescence of perinuclear SOD1 A4V-Halo granules [4]: dark fluorescence to a background level
SMILES: CC1=N/C(=C\c2ccc(N(C)C)cc2)C(=O)N1CC(=O)N[C@H]1CC[C@H](C(=O)NCCOCCOCCCCCCCl)CC1 [Compound 5]
- fluorescence in cells co-expressing Halo-tag and Htt-110Q-mCherry [1]: fluorescence was not observed
